The subject of one data set is HCT116 cells. The experiment in a line: Measurement of effect of inhibiting cancer cell proliferation (MTT). It is filed as cell-based. The settings on record: Homo sapiens.
The subject of a further data set is AMPKα. The experiment in a line: Measurement of AMPK-activation effect (AMPKα Thr172 phosphorylation immunoassay in MCF7 cells). In kind it is cell-based, human. Conditions: 24 hours. In outline:
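Human MCF7 breast cancer cells treated 24 h with compound at 5, 10 and 50 μM; metformin hydrochloride (0.05-10 mM) as control. AMPKα Thr172 phosphorylation measured in 20 μg lysate by immunoassay; AC150 (concentration giving 150% activation) calculated from concentration curves, with activation also given at 10 and 50 μM.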

Broadly, the inhibition is the percentage by which the read-out fell short of the control. Usually GI50 stands for the concentration giving 50% growth inhibition. Low values mean more potent growth inhibition, high ones less potent growth inhibition. As usually defined, the melting point is the temperature, or range, at which the solid turns liquid. As to `Cl.N=C(NCCc1ccc(Cl)cc1)NC(=N)N1CCCCCC1` [Example 61, N1-azepane-N5-((4-chloro)phenethyl)biguanide hydrochloride], the melting point was in the range of 181 to 183 °C. Further, the inhibition at 100 µM with HCT116 cells (HCT-116, 100 uM, 48 hours, read-out: Cell Growth Inhibition (%) at 100 uM) is 94.3%. The molecule also showed a GI50 in the data set on HCT116 cells (HCT-116, 48 hours) of 19.8 µM. Moreover, the “AMPK activation effect 10 uM (%)” value in the data set on AMPKα (10 uM, relative to untreated cells) came to 1130%. In addition, the “AC150 (concentration at which AMPK activation reached 150%)” value in the data set with AMPKα was 0.5 µM.

These data come from patent US9321742B2, “N1-cyclic amine-N5-substituted biguanide derivatives, methods of preparing the same and pharmaceutical composition comprising the same” (IMMUNOMET THERAPEUTICS INC., priority 2011, dated 2016).
